In EP0373216A1, “CEPHALOSPORIN COMPOUNDS OR THEIR SALTS, PROCESS FOR THEIR PREPARATION, AND PARMACEUTICAL COMPOSITIONS” (TEIJIN LIMITED, priority 1987, dated 1988):
Converted amounts (≈) assume the structure as drawn. Each block holds one compound with its values, some of them ahead of it.

Experiments:
[1] = system: alkali phosphatase (derived from calf intestines); assay: Conversion by alkali phosphatase, analyzed by liquid chromatography; format: in vitro ADME; details: 2 mg in 1 ml glycine buffer pH 7.0, 20U alkali phosphatase, 37°C for 1 hour, liquid chromatography RP-18, UV 260 nm
Method: 2 mg of the captioned compound was dissolved in 1 ml of a glycine buffer having pH of 7.0, and 20U of commercial alkali phosphatase (derived from calf intestines) was charged. The solution was kept at 37°C for 1 hour, and then analyzed by liquid chromatography [column: RP-18, elution solvent: a water/methanol solvent mixture, detection: UV wavelength 260 nm].

[2] = system: S. aureus Terajima; assay: In vitro antibacterial activity, agar disc dilution method; format: cell-based; details: Staphylococcus aureus; S. aureus Terajima; Mueller Hinton agar, 10^6/ml, 37°C for 16 hours; read-out: minimum growth inhibitory concentration (MIC)
Method: (§1) An in vitro antibacterial activity was measured by an agar disc dilution method.
(§2) Varied test bacteria were cultivated overnight in triptophane-soybroth. A Mueller Hinton agar containing the compound of this invention in varied concentrations was streaked with one platinum loopful of each of the bacteria (number of living cells 10^6/ml).

[3] = system: E. coli K12C600; assay: as above; format: cell-based; details: Escherichia coli; E. coli K12C600; Mueller Hinton agar, 10^6/ml, 37°C for 16 hours; read-out: minimum growth inhibitory concentration (MIC)
Method: as §1, §2

[4] = system: P. morganii IFO 3445; assay: as above; format: cell-based; details: Morganella morganii, IFO3445; P. morganii IFO 3445; Mueller Hinton agar, 10^6/ml, 37°C for 16 hours; read-out: minimum growth inhibitory concentration (MIC)
Method: as §1, §2

[5] = system: S. enteritidis G14; assay: as above; format: cell-based; details: Salmonella enterica; S. enteritidis G14; Mueller Hinton agar, 10^6/ml, 37°C for 16 hours; read-out: minimum growth inhibitory concentration (MIC)
Method: as §1, §2

[6] = system: B. subtilis ATCC 6633; assay: as above; format: cell-based; details: Bacillus subtilis, ATCC6633; B. subtilis ATCC 6633; Mueller Hinton agar, 10^6/ml, 37°C for 16 hours; read-out: minimum growth inhibitory concentration (MIC)
Method: as §1, §2

[7] = system: S. typhic 901; assay: as above; format: cell-based; details: Mueller Hinton agar, 10^6/ml, 37°C for 16 hours, read-out: minimum growth inhibitory concentration (MIC)
Method: as §1, §2

[8] = system: S. marcescens I AM 1184; assay: as above; format: cell-based; details: Serratia marcescens, IAM1184; S. marcescens I AM 1184; Mueller Hinton agar, 10^6/ml, 37°C for 16 hours; read-out: minimum growth inhibitory concentration (MIC)
Method: as §1, §2

[9] = system: M. euteus ATCC 9341; assay: as above; format: cell-based; details: M. euteus ATCC 9341; Mueller Hinton agar, 10^6/ml, 37°C for 16 hours; read-out: minimum growth inhibitory concentration (MIC)
Method: as §1, §2

[10] = system: P. vulgalis OX-19; assay: as above; format: cell-based; details: P. vulgalis OX-19; Mueller Hinton agar, 10^6/ml, 37°C for 16 hours; read-out: minimum growth inhibitory concentration (MIC)
Method: as §1, §2

[11] = system: P. rettgeric IFO3850; assay: as above; format: cell-based; details: P. rettgeric IFO3850; Mueller Hinton agar, 10^6/ml, 37°C for 16 hours; read-out: minimum growth inhibitory concentration (MIC)
Method: as §1, §2

[12] = system: P. aeruginosa NCTC 1049; assay: as above; format: cell-based; details: Pseudomonas aeruginosa, NCTC1049; P. aeruginosa NCTC 1049; Mueller Hinton agar, 10^6/ml, 37°C for 16 hours; read-out: minimum growth inhibitory concentration (MIC)
Method: as §1, §2

[13] = system: E. cloacae 963; assay: as above; format: cell-based; details: Enterobacter cloacae; E. cloacae 963; Mueller Hinton agar, 10^6/ml, 37°C for 16 hours; read-out: minimum growth inhibitory concentration (MIC)
Method: as §1, §2

[14] = system: S. pyogenes Cook; assay: as above; format: cell-based; details: Streptococcus pyogenes; S. pyogenes Cook; Mueller Hinton agar, 10^6/ml, 37°C for 16 hours; read-out: minimum growth inhibitory concentration (MIC)
Method: as §1, §2

[15] = system: K. pneumoniae PC I 602; assay: as above; format: cell-based; details: Klebsiella pneumoniae, PCI602; K. pneumoniae PC I 602; Mueller Hinton agar, 10^6/ml, 37°C for 16 hours; read-out: minimum growth inhibitory concentration (MIC)
Method: as §1, §2

Rf value of the main peak compared with the 6,7-dihydroxy-2-isoquinoliniummethyl compound (compound of Example 1) [1]: confirmed to agree
Compound: Nc1nc(/C(=N/Oc2ccccc2)C(=O)N[C@@H]2C(=O)N3C(C(=O)[O-])=C(C[n+]4ccc5cc(O)c(OS(=O)(=O)O)cc5c4)CS[C@H]23)cs1 [Example 6, (6R,7R)-7-[(Z)-2-(2-amino-1,3-thiazol-4-yl-2-phenoxyimino)acetamide]-3-(6,7-hydroxy-7-sulfonyloxy-2-isoquinolinium)methyl-3-cephem-4-carboxylate]

Compound: CC(=O)Oc1cc2cc[n+](CC3=C(C(=O)[O-])N4C(=O)[C@@H](NC(=O)/C(=N\Oc5ccccc5)c5csc(N)n5)[C@H]4SC3)cc2cc1O [Compound X]
MIC [2]: 1.6 µg/mL (≈ 2.42 µM)
MIC [3]: < 0.01 µg/mL
MIC [4]: < 0.01 µg/mL
MIC [5]: 0.01 µg/mL (≈ 0.0151 µM)
MIC [6]: 0.8 µg/mL (≈ 1.21 µM)
MIC [7]: < 0.01 µg/mL
MIC [8]: < 0.01 µg/mL
MIC [9]: 1.6 µg/mL (≈ 2.42 µM)
MIC [10]: < 0.01 µg/mL
MIC [11]: < 0.01 µg/mL
MIC [12]: 0.1 µg/mL (≈ 0.151 µM)
MIC [13]: < 0.01 µg/mL
MIC [14]: 0.8 µg/mL (≈ 1.21 µM)
MIC [15]: < 0.01 µg/mL

Compound: Nc1nc(/C(=N/Oc2ccccc2)C(=O)N[C@@H]2C(=O)N3C(C(=O)[O-])=C(C[n+]4ccc5cc(O)c(O)cc5c4)CS[C@H]23)ns1 [Compound XI, (6R,7R)-[(Z)-2(5-amino-1,2,4-thiadiazol-3-yl)-2-phenoxyiminoacetamide]-3-(6,7-dihydroxy-2-isoquinolinium)methyl-3-cephem-carboxylate]
MIC [2]: 0.2 µg/mL (≈ 0.323 µM)
MIC [3]: 0.01 µg/mL (≈ 0.0161 µM)
MIC [4]: < 0.01 µg/mL
MIC [5]: < 0.01 µg/mL
MIC [6]: 0.4 µg/mL (≈ 0.646 µM)
MIC [7]: < 0.01 µg/mL
MIC [8]: < 0.01 µg/mL
MIC [9]: 0.01 µg/mL (≈ 0.0161 µM)
MIC [10]: < 0.01 µg/mL
MIC [11]: < 0.01 µg/mL
MIC [12]: 0.2 µg/mL (≈ 0.323 µM)
MIC [13]: < 0.01 µg/mL
MIC [14]: 0.05 µg/mL (≈ 0.0807 µM)
MIC [15]: < 0.01 µg/mL
